Measurements: patent US11000492B2, “Fluorenone compound for the treatment of gout” (The Trustees of Columbia University in the City of New York, priority 2015, dated 2021)
Entries after “also recorded” stand apart in the source; their conditions may differ. Read-outs that look alike come from different tables or passages of the source.

Assays:
gout = experiment: Administration of DPOFA to subjects afflicted with or at risk of gout (Examples 3-6); type: in vivo, human
Method: An amount of compound DPOFA is administered to a human subject afflicted with gout. […] An amount of compound DPOFA in combination with allopurinol or febuxostat is administered to a subject afflicted with gout. […] An amount of compound DPOFA is administered to a subject with a history of gout flares or who is at risk for a gout flare. […] An amount of compound DPOFA in combination with allopurinol or febuxostat is administered to a subject with history of gout flares or who is at risk for a gout flare.

[1] = test system: uric acid levels in the urine; experiment: Uric acid levels in the urine of guinea pig; type: in vivo
Excerpt: The fluorenone DPOFA, (R)-(+)-(5,6-dichloro-2,3,9,9a-tetrahydro-3-oxo-9a-propyl-1H-fluoren-7-yl)oxy]acetic acid, was originally developed for trauma-induced brain damage.

[2] = humans; originally studied for treating brain edema; cited from earlier work
serum uric acid [3] = experiment: Serum uric acid after systemic intraperitoneal administration in guinea pigs; type: in vivo
serum uric acid [4] = conditions: cited from earlier work; for patients meeting target serum levels (serum uric acid): patients with at least one measurable tophus
serum urate = conditions: cited from earlier work
[5] = particularly in the 400 mg group

Question: With `CCC[C@]12CCC(=O)C=C1c1c(cc(OCC(=O)O)c(Cl)c1Cl)C2` [DPOFA] as the compound, how does the “serum uric acid levels in subject afflicted with gout” value (gout; human subject afflicted with gout, Example 3) read?
Answer: The value was “reduces serum uric acid levels”.

Question: And the “treating gout, combination versus each compound alone” value (gout; in combination with allopurinol or febuxostat, Example 4)?
Answer: Its value is “more effective in treating the gout than each compound administered alone”.

Question: And the “preventing gout, combination versus each compound alone” value (gout; in combination with allopurinol or febuxostat, Example 6)?
Answer: The value was “more effective in preventing the gout than each compound administered alone”.

Question: And the “prevention of gout flares” value (gout; subject with a history of gout flares or at risk, Example 5)?
Answer: The value was “effective to prevent gout flares”.

Question: What about the “uric acid levels in the urine” value [1] of the same compound?
Answer: Its value is “increases uric acid levels in the urine”.

Question: And the “crossing of the blood-brain barrier” value [2]?
Answer: The value was “failed to cross the blood-brain barrier”.

Question: What about the “reduction in the serum uric acid level” value (serum uric acid [3]; 20 mg intraperitoneally) of the same compound?
Answer: The value was “pronounced reduction; also recorded: reduced uric acid levels in the blood”.

Question: What about the “time point of maximum reduction of uric acid” value (serum uric acid [3]; following systemic administration of 20 mg) of the same compound?
Answer: Its value is 7 h.

Question: For `Cc1nc(-c2ccc(OCC(C)C)c(C#N)c2)sc1C(=O)O` [febuxostat], which “patients meeting target serum levels (serum uric acid)” value (serum uric acid [4]; febuxostat alone) is on record?
Answer: Its value is 46%.

Question: Which “improvement at six months (primary endpoint)” value (serum uric acid [4]; 200 mg dose) does the source give for `O=C(O)CSc1nnc(Br)n1-c1ccc(C2CC2)c2ccccc12` [lesinurad] here?
Answer: The value was “failed to show a significant improvement”.

Question: What about the “proportion of subjects achieving a complete resolution of at least one tophus by month 12” value (serum uric acid [4]; combination with febuxostat) of the same compound?
Answer: Its value is “did not result in a significant difference”.

Question: And the “patients meeting target serum levels (serum uric acid)” value (serum uric acid [4]; lesinurad 400 mg in combination with febuxostat)?
Answer: The value was 76%.

Question: What about the “rate of renal-related AEs” value (serum uric acid [4]; [5]) of the same compound?
Answer: The value was “higher rate of renal-related AEs”.

Question: What about the serum creatinine levels (serum uric acid [4]; [5]) of the same compound?
Answer: The serum creatinine levels was “rise in serum creatinine levels”.

Question: For `CCCN(CCC)S(=O)(=O)c1ccc(C(=O)O)cc1` [probenecid], which “patients achieving target serum urate concentrations (<0.36 mmol/l)” value (serum urate; allopurinol combination treatment group, 10/27) is on record?
Answer: The value was 37%.

Question: And the “adverse effects, share of subjects tested” value (serum urate; human, in vivo)?
Answer: The value was 19%.

Question: What about the “patients achieving target serum urate concentrations (<0.36 mmol/l)” value (serum urate; probenecid monotherapy group, 10/30) of the same compound?
Answer: Its value is 33%.
